In patent publication US10519133B2, “Vinyl compounds as FGFR and VEGFR inhibitors” (MEDSHINE DISCOVERY INC., priority 2015, dated 2019):

Key:
SNU-16 cell = test: CellTiter-Glo Luminescent Cell Viability Assay; format: cell-based; details: Homo sapiens, 72 h; SNU-16 cells, 3 days; read-out: SNU-16 IC50 (CellTiter-Glo Detection)
Experimental: To detect the change of intracellular ATP by CellTiter-Glo® Luminescent Cell Viability Assay, and to evaluate the inhibitory effect of the compounds on in vitro cell SNU-16 using IC50 value of the compounds as an indicator.
Cell line: SNU-16 cell strain d. Diluting SNU-16 with medium, adding the diluted cells to the 384 plate (Greiner. 781090) (50 μL/well, SNU-16 cell 750 cells/well) with multi-channel pipette. Placing the cell plate in a 37° C., 5% CO2 incubator overnight. […]
g. Diluting the compound with DMSO to 10 mM, 3-fold dilution, 11 gradients, duplicate wells. h. Transferring 2.4 ul of the compound to the middle plate added with 47.6 ul of cell culture media at Bravo Automatic Liquid Station. Then transferring 5 ul to the cell culture plate (55 ul) to ensure the final DMSO concentration to be 0.4%. […]
i. Placing the cell culture plate in 5% CO2 incubator at 37° C. to continue cultivating for 3 days. d. Balancing Cell Titer Glo Reagent to room temperature e. Taking 30 ul of Cell Titer Glo Reagent in a 1:2 ratio into each well and gently mixing for 2 minutes f. Placing the cell culture plate in an incubator (23° C.) for 10 minutes, taking out and centrifuging at 1000 rpm for 1 minute g. Reading on Envision (Perkin Elmer) Plate Reader.
H. Analyzing Data: Analyzing the Data Using XLFIT (IDBS) and Calculating IC50 Values for the Compounds.

FGFR1 = biological target: T1, FGFR1 (Homo sapiens, UniProt P11362); test: Z′-LYTE Detection Kinase Assay, in vitro enzymatic activity; format: biochemical; details: 0.6 nM FGFR1, 2 uM Tyr4 peptide, 10 uM ATP, 60 min 23° C.
T1 construct: purchased Invitrogen PV4105
Experimental: To measure enzyme activity by Z′-LYTE™ Detection Kinase Assay, and to evaluate the inhibitory effect of the compounds on FGFR1 using IC50 value of the compounds as an indicator. […]
Reaction Buffer: 50 mM Hepes (pH 7.5), 10 mM MgCl2, 1 mM EGTA, 0.01% Brij-35, 1 mM DTT, 2 mM MnCl2 0.6 nM FGFR1, 2 uM Tyr4 peptide and 10 uM ATP in reaction buffer (50 mM Hepes, pH 7.5, 10 mM MgCl2, 0.01% BRIJ-35, 1 mM EGTA, 4 mM MnCl2, 2 mM DTT). a. Diluting the compounds with DMSO to 10 mM, 3-fold dilution, 11 gradients, duplicate wells. b. Diluting the compound by 1:25 into middle plate at Bravo Automatic Liquid Station, then transferring 2.5 ul to the reaction plate to ensure the final DMSO concentration to be 1%. c. Transferring 5 ul of enzyme/substrate buffer into each well d. Using Multidrop Liquid Workstation to sequentially add ATP solution to each well e. Centrifuging at 1000 rpm for 1 minute f. Placing the reaction plate in an incubator at 23° C. to react for 60 min. a. Preparing a 1:128 mixture of Development Regent B and Development Buffer b. Adding 5 ul to each well and centrifuging at 1000 rpm for 1 minute c. Placing the reaction plate in a thermostat (23° C.) after centrifuging for 90 minutes, removing and reading on Envision (Perkin Elmer) Plate Reader
D. Analyzing Data: Analyzing Data Using XLFIT (IDBS) and Calculating IC50 Values for the Compounds.

[1] = tested on: FGFR1/2 Highly Expressed Patient-derived Liver Tumor Transplantation Model; test: Tumor growth inhibition (TGI) analysis; format: in vivo, mice; details: BID
Experimental: The evolutionary growth potential of tumors was evaluated by the relationship between tumor volume and time. The long axis (L) and short axis (W) of the subcutaneous tumor were measured twice a week by the caliper and the tumor volume (TV) was calculated by the formula ((L×W^2)/2). TGI was calculated from the difference between the median tumor volume in the solvent group mice and the median tumor volume in the drug group mice, expressed as a percentage counting for the median tumor volume in the solvent control group, calculated by the following formula: % TGI=((median tumor volume(control)−median tumor volume(dosing group))/median tumor volume(control group))×100
The original statistical analysis was done by repeating the analysis of variance, followed by Scheffe psot hoc experimental method for multiple comparisons, with solvent alone (0.5% methylcellulose+0.2% Tween in water) as negative control.

in vivo = details: female, Balb/c nude, mouse, po, 2 mg/kg
Experimental: (§1) Experimental Procedure: A clear solution of the test compound in 20% DMSO/60% PEG400/20% water at 0.4 mg/ml was administered by intragastric administration to female Balb/c nude mice (fasted overnight, 7-9 weeks of age) with a dose of 2 mg/kg. About 30 μL of blood was collected from the jugular vein or caudal vein at 0.25, 0.5, 1.0, 2.0, 4.0, 8.0 and 24 h after administration in both groups of animals, placed in anticoagulation tube with EDTA-K2 and the plasma was centrifuged. Plasma concentrations were determined by LC-MS/MS and related pharmacokinetic parameters were calculated using the non-compartmental model linear logarithmic trapezoidal method using WinNonlin™ Version 6.3 (Pharsight, Mountain View, Calif.) pharmacokinetic software.

[2] = female, Balb/c nude, mouse, in vivo, 2 mg/kg
Experimental: as §1

T1 sequence (P11362 22-822): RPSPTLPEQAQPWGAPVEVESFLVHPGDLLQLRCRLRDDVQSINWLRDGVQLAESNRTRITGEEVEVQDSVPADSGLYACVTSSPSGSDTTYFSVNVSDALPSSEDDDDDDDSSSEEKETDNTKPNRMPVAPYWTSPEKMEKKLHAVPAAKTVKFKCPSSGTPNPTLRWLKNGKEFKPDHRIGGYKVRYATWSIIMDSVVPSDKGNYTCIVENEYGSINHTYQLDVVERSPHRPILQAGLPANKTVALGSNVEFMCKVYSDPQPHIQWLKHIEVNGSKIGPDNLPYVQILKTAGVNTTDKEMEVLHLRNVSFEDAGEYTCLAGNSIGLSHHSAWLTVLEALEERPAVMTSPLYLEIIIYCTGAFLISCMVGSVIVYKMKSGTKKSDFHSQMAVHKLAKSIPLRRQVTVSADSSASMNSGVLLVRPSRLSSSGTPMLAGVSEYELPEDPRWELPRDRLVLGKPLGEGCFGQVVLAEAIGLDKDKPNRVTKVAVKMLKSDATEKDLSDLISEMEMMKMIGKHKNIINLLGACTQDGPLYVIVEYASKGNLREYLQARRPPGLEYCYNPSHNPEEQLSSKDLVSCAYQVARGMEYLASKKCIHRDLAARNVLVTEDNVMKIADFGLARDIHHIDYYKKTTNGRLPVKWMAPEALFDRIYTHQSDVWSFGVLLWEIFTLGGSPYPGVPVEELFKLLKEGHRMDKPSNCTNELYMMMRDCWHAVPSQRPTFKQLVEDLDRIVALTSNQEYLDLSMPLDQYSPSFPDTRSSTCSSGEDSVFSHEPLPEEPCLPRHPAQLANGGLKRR

CC(Oc1ccc2[nH]nc(/C=C(\F)c3ccc(CN4CCOCC4)nc3)c2c1)c1c(Cl)cncc1Cl (stereo not drawn) [Example 16]
IC50 (SNU-16 cell): ≤ 10 nM | IC50 (FGFR1): 10 to 50 nM | TGI % (last administration) ([1]; 15 mg/kg): 84.5%

C[C@@H](Oc1ccc2[nH]nc(/C=C(\F)c3ccc(CNC4CCOCC4)nc3)c2c1)c1c(Cl)cncc1Cl [Example 18]
IC50 (FGFR1): ≤ 10 nM | TGI % (last administration) ([1]; 5 mg/kg): 85%

CC(Oc1ccc2[nH]nc(/C=C/c3ccc(CN4CCOCC4)nn3)c2c1)c1c(Cl)cncc1Cl (stereo not drawn) [Example 54]
IC50 (FGFR1): ≤ 10 nM | TGI % (last administration) ([1]; 10 mg/kg): 85.4%

CC(Oc1ccc2[nH]nc(/C=C/c3ccc(CN4CCOCC4)cc3)c2c1)c1c(Cl)cncc1Cl (stereo not drawn) [Example 63]
IC50 (FGFR1): 10 to 50 nM | TGI % (last administration) ([1]; 15 mg/kg): 86%

CC(Oc1ccc2[nH]nc(/C=C/c3ccc(CN4CCOCC4)cc3)c2c1)c1c(Cl)cncc1Cl (stereo not drawn) [WX_063]
AUC(0-t) (in vivo): 0.221 ± 0.0713 µM·h | Cmax (in vivo): 214 ± 39.7 nM | peak time [2]: 0.25 h
